Non-standard residues stand in square brackets, D forms with d. Residues, ends and D or L forms follow the SMILES beside them. *: point of attachment. Dnp = O=[N+]([O-])c1ccc(*)c([N+](=O)[O-])c1; Mca = COc1ccc2c(CC(=O)*)cc(=O)oc2c1; Dap = NC[C@H](N)C(=O)O
What was measured:
Assay type in all cases: biochemical
[1] = target: T1, MMP-3 (Homo sapiens, UniProt P08254); test: Secondary P218 Quenched fluorescence Assay for MMP-3 Inhibition; conditions: for IC50: P218 substrate, pH 6.5, 25° C., x (n) = average of n determinations, read-out: MMP-3 Fluorogenic IC50
T1 construct: Truncated Prostromelysin-257 was expressed in a soluble form in E.coli; made in house; host or cells: E. coli
T1 sequence (P08254 100-274 limits assumed): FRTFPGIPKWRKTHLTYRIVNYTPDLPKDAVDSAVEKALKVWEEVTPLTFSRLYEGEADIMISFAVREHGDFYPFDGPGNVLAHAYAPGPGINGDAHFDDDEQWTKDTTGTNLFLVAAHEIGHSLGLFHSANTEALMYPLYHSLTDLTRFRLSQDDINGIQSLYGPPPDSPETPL
Method: Truncated Prostromelysin-257 was expressed in a soluble form in E.coli as described by Marcy et al., Biochemistry, 30, 6476-6483, 1991. Soluble truncated prostromelysin was purified by a modification of the monoclonal antibody affinity chromatography method described by Housley et al., J. Biol. Chem., 268, 4481-87, 1993.
The assay is run continuously in a 3.0 ml cuvette using a Perkin-Elmer LS 50 B Spectrofluorimeter at 25° C. in a final volume of 2.0 mls. P218 substrate (10 mM) in 100% DMSO is diluted to a final concentration of 2.0 micromolar (μM) into assay buffer: 50 mM MES, pH 6.5 containing 150 mM NaCl, 10 mM CaCl2, 0.005% Brij-35, and 1%(v/v) DMSO. Test compounds(10 mM) in DMSO are diluted in assay buffer at an initial concentration of 10 to 100 micromolar. […] The reaction is initiated by the addition of recombinant stromelysin (MMP-3) at a final concentration of 1.0 nM. Upon peptide cleavage, the fluorescent MCA group was detected using an excitation wavelength of 328 nanometers and an emission wavelength of 393 nanometers.

[2] = target: T1, MMP-3; test: Primary Thiopeptilide MMP-3 Inhibition Assay; conditions: for IC50: pH 6.5, 13 nM stromelysin, x (n) = average of n determinations, read-out: MMP-3 Thiopep. IC50; for inhibition at 5 µM: read-out: MMP-3 Thiopep. % inhibition
Method: Enzyme: recombinant stromelysin expressed in E.coli and purified as described above. […] The protocols for the assay of compounds as stromelysin inhibitors was the same as that used for MMP-9 except that the assay buffer was 50 mM MES, pH 6.5 containing 150 mM NaCl, 10 mM CaCl2, 0.005% Brij, and 1% DMSO.

[3] = target: T2, MMP-9 (Homo sapiens, UniProt P14780); test: Thiopeptilide MMP-9 Inhibition Assay; conditions: for IC50: pH 6.5, x (n) = average of n determinations, read-out: MMP-9: Thiopep. IC50; for inhibition at 5 µM: read-out: MMP-9: Thiopep. % inhibition
T2 construct: from tissue; host or cells: human polymorphonuclear leukocytes (PMN) from whole blood (New York Blood Center), PMA-stimulated supernatant
T2 sequence (P14780 107-707 limits assumed): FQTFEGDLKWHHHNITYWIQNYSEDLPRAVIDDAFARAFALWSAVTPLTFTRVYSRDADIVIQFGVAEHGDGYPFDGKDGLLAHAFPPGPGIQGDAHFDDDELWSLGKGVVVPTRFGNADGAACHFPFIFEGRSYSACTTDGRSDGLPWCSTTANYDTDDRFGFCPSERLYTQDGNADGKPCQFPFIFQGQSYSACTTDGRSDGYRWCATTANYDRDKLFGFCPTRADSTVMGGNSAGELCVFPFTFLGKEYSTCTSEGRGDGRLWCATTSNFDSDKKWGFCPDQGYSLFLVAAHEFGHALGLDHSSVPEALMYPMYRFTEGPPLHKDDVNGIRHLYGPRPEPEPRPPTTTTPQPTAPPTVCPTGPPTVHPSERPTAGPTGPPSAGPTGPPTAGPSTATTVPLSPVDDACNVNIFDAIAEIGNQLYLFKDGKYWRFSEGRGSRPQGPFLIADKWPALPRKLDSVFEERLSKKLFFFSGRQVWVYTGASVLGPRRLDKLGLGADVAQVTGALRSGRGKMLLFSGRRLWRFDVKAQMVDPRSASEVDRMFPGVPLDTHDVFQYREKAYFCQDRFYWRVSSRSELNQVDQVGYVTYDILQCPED

[4] = target: T3, MMP-2 (Homo sapiens, UniProt P08253); test: Secondary P218 Quenched fluorescence Assay for MMP-2 Inhibition; conditions: for IC50: 0.2 nM enzyme, x (n) = average of n determinations, read-out: MMP-2 Fluorogenic IC50
T3 sequence (P08253 110-660): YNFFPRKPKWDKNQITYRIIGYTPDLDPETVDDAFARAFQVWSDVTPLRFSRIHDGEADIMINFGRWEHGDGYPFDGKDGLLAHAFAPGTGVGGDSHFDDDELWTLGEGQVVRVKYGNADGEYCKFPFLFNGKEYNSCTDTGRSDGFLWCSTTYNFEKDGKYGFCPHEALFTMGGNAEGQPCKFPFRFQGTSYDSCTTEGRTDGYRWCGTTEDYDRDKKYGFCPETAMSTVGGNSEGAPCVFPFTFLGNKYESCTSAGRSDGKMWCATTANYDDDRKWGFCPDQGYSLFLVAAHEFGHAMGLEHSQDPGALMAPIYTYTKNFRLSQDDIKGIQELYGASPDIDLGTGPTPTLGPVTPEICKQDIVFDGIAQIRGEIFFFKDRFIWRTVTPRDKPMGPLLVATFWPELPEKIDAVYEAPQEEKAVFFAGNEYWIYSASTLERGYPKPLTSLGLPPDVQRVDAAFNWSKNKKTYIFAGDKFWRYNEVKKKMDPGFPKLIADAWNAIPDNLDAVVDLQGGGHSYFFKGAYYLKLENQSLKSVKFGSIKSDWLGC

[5] = test system: MMP; test: MMP inhibitory activity, comparison in words
[6] = target: T2, MMP-9; test: Automated MMP Profiling Assay, MMP-9 fluorogenic; conditions: 96-well automated, P218
[7] = target: T1, MMP-3; test: Automated MMP Profiling Assay, MMP-3 fluorogenic; conditions: 96-well automated, P218
Description: This assay with each invention compound was run with the three enzymes MMP-3, MMP-9 and MMP-2 in parallel as adapted for a 96-well microtitre plate using a Hamilton A® workstation.

[8] = target: T3, MMP-2; test: Automated MMP Profiling Assay, MMP-2 fluorogenic; conditions: 96-well automated, P218; read-out: MMP-2 Fluorogenic IC50 (profiling)

`CC(C)CC(CC(=O)O)C(=O)c1ccc(-c2ccc(Cl)cc2)cc1` (single isomer, unassigned) [Example 4, 5-methyl-3-[oxo-(4'-chloro-4-biphenyl)methyl]hexanoic acid] showed an IC50 [1] of 0.48 µM, an IC50 [2] of 0.379 µM and an IC50 [3] of 2.7 µM.
With `COc1ccc2c(CC(=O)N3CCC[C@H]3C(=O)N[C@@H](CCCCN)C(=O)N3CCC[C@H]3C(=O)N[C@@H](CC(C)C)C(=O)N[C@@H](C)C(=O)N[C@@H](CC(C)C)C(=O)N[C@@H](CNc3ccc([N+](=O)[O-])cc3[N+](=O)[O-])C(=O)N[C@@H](C)C(=O)N[C@@H](CCCNC(=N)N)C(N)=O)cc(=O)oc2c1` [Example P218] (Mca-PKPLAL[Dap](Dnp)AR-NH2) the “turnover number of MMP-2” value ([4]; P218 substrate) was 400,000.
For `CCCCCC(CC(=O)c1ccc(-c2ccc(Cl)cc2)cc1)C(=O)O` (stereo not drawn) [Example 26, [1,1'-Biphenyl]-4-butanoic acid, 4'-chloro-γ-oxo-α-pentyl-], the IC50 [1] was 0.24 µM, the IC50 [2] was 0.62 µM and the IC50 [3] was 4.3 µM.
For `CC(=O)SC(CC(=O)c1ccc(Oc2ccc(Cl)cc2)cc1)C(=O)O` (stereo not drawn) [Example 254, Benzenebutanoic acid, α-(acetylthio)-4-(4-chlorophenoxy)-γ-oxo-, reference compound], the “MMP inhibitory activity (in words)” value [5] was “very low potency”, the inhibition at 5 µM [2] was 10% and the inhibition at 5 µM [3] was 27%.
`O=C(O)[C@@H]1[C@@H](C(=O)c2ccc(-c3ccc(Cl)cc3)cc2)CC[C@H]1Sc1ccccc1` (relative stereo) [Example 294, trans-5-[4-(4-chlorophenyl)phenylcarbonyl]-trans-^2-phenylthiocyclopentanecarboxylic acid] gave an IC50 [1] of 0.014 µM, an IC50 [6] of 0.176 µM and an IC50 [2] of 0.047 µM. The IC50 ([4]; P218 substrate) was 0.004 µM, the IC50 [7] was 0.058 µM and the IC50 [8] was 0.011 µM. For the same compound, the IC50 [3] was 0.056 µM.
`O=C(O)CCc1ccc(-c2ccc(CCC(CCCc3ccccc3)C(=O)O)cc2)cc1` (stereo not drawn) [Example 45, [1,1'-Biphenyl]-4-butanoic acid, 4'-(2-carboxyethyl)-α-(3-phenylpropyl)-] was tested, and the inhibition at 5 µM ([1]; at 5 μM, read-out: MMP-3 Fluorogenic % inhibition) was 43% and the inhibition at 5 µM ([4]; at 5 μM, read-out: MMP-2 Fluorogenic % inhibition) was 56%.
Compound `CCOC(=O)CCc1ccc(-c2ccc(CCC(CCCc3ccccc3)C(=O)O)cc2)cc1` (stereo not drawn) [Example 44, [1,1'-Biphenyl]-4-butanoic acid, 4'-(3-ethoxy-3-oxopropyl)-α-(3-phenylpropyl)-] has an IC50 [1] of 1.97 µM and an IC50 ([4]; P218 substrate) of 1.15 µM.
In the case of `CCOC(=O)/C=C/c1ccc(-c2ccc(C(=O)CC(CCCc3ccccc3)C(=O)O)cc2)cc1` (stereo not drawn) [Example 42, [1,1'-Biphenyl]-4-butanoic acid, 4'-(3-ethoxy-3-oxo-1-propenyl)-γ-oxo-α-(3-phenylproyl)-, (E)-], the IC50 [1] is reported as 0.048 µM and the IC50 ([4]; P218 substrate) is reported as 0.021 µM.
In the case of `O=C(O)[C@H]1[C@H](CN2C(=O)c3ccccc3C2=O)CC[C@@H]1C(=O)c1ccc(-c2ccc(Cl)cc2)cc1` [Example 361, (1S,2R,5S)-trans-5-[4-(4-chlorophenyl)phenylcarbonyl]-trans-2-phthalimidomethylcyclopentanecarboxylic acid], the IC50 [6] is reported as 0.0005 µM, the “MMP inhibitory activity (in words)” value [5] is reported as “most active” and the IC50 [7] is reported as 0.003 µM. It also gave an IC50 [8] of 0.00081 µM.
With `CC(C)CC(CC(=O)c1ccc(-c2ccc(Cl)cc2)cc1)C(=O)O` (stereo not drawn) [Example 1, [1,1'-Biphenyl]-4-butanoic acid, 4'-chloro-α-(2-methylpropyl)-γ-oxo-] the IC50 [1] was 0.805 µM, the IC50 [2] was 0.486 µM and the IC50 [3] was 1 µM.
`CC(C)CC(CC(=O)c1ccc(-c2ccc(I)cc2)cc1)C(=O)O` (stereo not drawn) [Example 41, [1,1'-Biphenyl]-4-butanoic acid, 4'-iodo-α-(2-methylpropyl)-γ-oxo-] was tested, and the IC50 [1] was 0.26 µM, the IC50 [2] was 0.118 µM and the IC50 [3] was 0.5 µM.
`O=C(O)[C@@H]1[C@@H](CN2C(=O)c3ccccc3C2=O)CC[C@H]1C(=O)c1ccc(-c2ccc(Cl)cc2)cc1` [Example 362, (1R,2S,5R)-trans-5-[4-(4-chlorophenyl)phenylcarbonyl]-trans-2-phthalimidomethylcyclopentanecarboxylic acid] was tested, and the IC50 [6] was 0.1 µM, the “MMP inhibitory activity (in words)” value [5] was “less active” and the IC50 [7] was 0.431 µM. For the same compound, the IC50 [8] was 0.183 µM.
In the case of `CC(C)CC(CC(=O)c1ccc(-c2ccc(Br)cc2)cc1)C(=O)O` (stereo not drawn) [Example 14, [1,1'-Biphenyl]-4-butanoic acid, 4'-bromo-α-(2-methylpropyl)-γ-oxo-], the IC50 [1] is reported as 0.57 µM, the IC50 [2] is reported as 0.44 µM and the IC50 [3] is reported as 1.2 µM.
`COC(=O)c1ccccc1SCC(CC(=O)c1ccc(-c2ccc(Cl)cc2)cc1)C(=O)O` (stereo not drawn) [Example 244, [1,1'-Biphenyl]-4-butanoic acid, 4'-chloro-α-[[[2-(methoxycarbonyl)phenyl]thio]methyl]-γ-oxo-] gave an IC50 [1] of 0.027 µM, an IC50 [2] of 0.079 µM and an IC50 ([4]; P218 substrate) of 0.007 µM. For the same compound, the IC50 [3] was 0.6 µM.
`CC(C)CC(CC(=O)c1ccc(-c2ccccc2)cc1)C(=O)O` (stereo not drawn) [Example 13, [1,1'-Biphenyl]-4-butanoic acid, α-(2-methylpropyl)-γ-oxo-] was tested, and the “MMP inhibitory activity (in words)” value [5] was “low potency”, the inhibition at 5 µM [2] was 27% and the inhibition at 5 µM [3] was 3%.
In the case of `O=C(O)[C@@H]1CC[C@H]1C(=O)c1ccc(-c2ccc(Cl)cc2)cc1` (relative stereo) [Example 291, Cyclobutanecarboxylic acid, 2-[(4'-chloro[1,1'-biphenyl]-4-yl)carbonyl]-, trans-], the “MMP inhibitory activity (in words)” value [5] is reported as “much more active”, the IC50 [2] is reported as 0.437 µM and the IC50 [3] is reported as 2.7 µM.
Compound `CCCCCOc1ccc(-c2ccc(C(=O)CC(CCCc3ccccc3)C(=O)O)cc2)cc1` (stereo not drawn) [Example 85, 4-[4-(4-pentyloxyphenyl)phenyl]-4-oxo-2-(3-phenylpropyl)butanoic acid] has an IC50 [6] of 0.767 µM, an IC50 [2] of 0.037 µM and an IC50 [7] of 0.08 µM. The IC50 [8] was 0.032 µM and the inhibition at 5 µM [3] was 44%.
With `CC(C)(C)C(=O)SCC(CC(=O)c1ccc(-c2ccc(Cl)cc2)cc1)C(=O)O` (single isomer, unassigned) [Example 194, [1,1'-Biphenyl]-4-butanoic acid, 4'-chloro-α-[[(2,2-dimethyl-1-oxopropyl)thio]methyl]-γ-oxo-] the IC50 [1] was 0.062 µM, the IC50 [2] was 0.115 µM and the IC50 [3] was 0.75 µM.
`CC(C)(C)C(=O)SCC(CC(=O)c1ccc(-c2ccc(Cl)cc2)cc1)C(=O)O` (stereo not drawn) [Example 193, [1,1'-Biphenyl]-4-butanoic acid, 4'-chloro-α-[[(2,2-dimethyl-1-oxopropyl)thio]methyl]-γ-oxo-] gave an IC50 [1] of 0.15 µM, an IC50 [2] of 0.153 µM and an IC50 ([4]; P218 substrate) of 0.04 µM. The IC50 [3] was 2.45 µM.
In the case of `O=C(C[C@@H](CCN1C(=O)c2ccccc2C1=O)C(=O)O)c1ccc(-c2ccc(Cl)cc2)cc1` [Example 269, 4-[4-(4-chlorophenyl)phenyl]-4-oxo-2R-(2-phthalimidoethyl)butanoic acid], the IC50 [6] is reported as 0.197 µM, the “MMP inhibitory activity (in words)” value [5] is reported as “less active” and the IC50 [7] is reported as 1.03 µM. It also gave an IC50 [8] of 0.165 µM.
For `O=C(CC(CCCc1ccccc1)C(=O)O)c1ccc(-c2ccc(Cl)cc2)cc1` (stereo not drawn) [Example 114, 4-[4-(4-chlorophenyl)phenyl]-4-oxo-2-(3-phenylpropyl)butanoic acid], the IC50 [1] was 0.12 µM, the IC50 [6] was 0.439 µM and the IC50 [2] was 0.244 µM. It also gave an IC50 ([4]; P218 substrate) of 0.025 µM, an IC50 [7] of 0.246 µM and an IC50 [8] of 0.068 µM. For the same compound, the IC50 [3] was 0.285 µM.
In the case of `O=C(CC(Cc1ccccc1)C(=O)O)c1ccc(-c2ccc(Cl)cc2)cc1` (stereo not drawn) [Example 131, [1,1'-Biphenyl]-4-butanoic acid, 4'-chloro-γ-oxo-α-(phenylmethyl)-], the IC50 [1] is reported as 0.9 µM and the IC50 [2] is reported as 0.31 µM.

From patent US5789434A, “Derivatives of substituted 4-biarylbutyric acid as matrix metalloprotease inhibitors” (priority 1995, dated 1998)
